# According to patent EP4745132A1 (Technoderma Medicines Inc., priority 2023, dated 2025):
# Legend:
# NUAK1 = biological target: T1, NUAK1 (Homo sapiens, UniProt O60285); test: Enzyme activity inhibition test, kinase activity assay based on P81 filter paper binding hot-spot technique; format: biochemical; conditions: final concentration of NUAK1 10 nM; 20 µM CHKtide peptide substrate; 33P-labeled ATP; 2 hours at room temperature; read-out: IC50 (nM) of Test Compounds against NUAK1
# T1 sequence (O60285 1-661): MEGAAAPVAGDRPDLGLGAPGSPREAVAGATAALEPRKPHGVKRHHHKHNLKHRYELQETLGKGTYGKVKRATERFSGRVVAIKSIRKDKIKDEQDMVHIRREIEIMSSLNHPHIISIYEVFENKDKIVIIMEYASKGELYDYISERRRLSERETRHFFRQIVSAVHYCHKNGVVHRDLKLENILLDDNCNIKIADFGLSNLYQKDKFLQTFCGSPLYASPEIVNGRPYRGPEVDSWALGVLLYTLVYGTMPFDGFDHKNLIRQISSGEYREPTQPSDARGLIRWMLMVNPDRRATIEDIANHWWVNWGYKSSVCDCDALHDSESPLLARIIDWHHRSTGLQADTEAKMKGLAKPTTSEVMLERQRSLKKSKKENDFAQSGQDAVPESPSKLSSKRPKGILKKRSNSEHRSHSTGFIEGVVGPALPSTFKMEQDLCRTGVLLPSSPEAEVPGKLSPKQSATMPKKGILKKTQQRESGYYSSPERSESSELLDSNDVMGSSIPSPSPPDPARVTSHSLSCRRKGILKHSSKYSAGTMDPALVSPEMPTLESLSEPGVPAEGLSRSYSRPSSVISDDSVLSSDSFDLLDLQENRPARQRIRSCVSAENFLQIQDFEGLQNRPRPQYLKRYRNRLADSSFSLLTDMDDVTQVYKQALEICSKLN
# Procedure: (§1) Test Example: Enzyme Activity Inhibition Test of NUAK1/NUAK2 Kinase Inhibitors
# (§2) The inhibitory activity of the pyrimidinamine small molecules involved in the present application against NUAK1 and NUAK2 kinases was determined using a kinase activity assay based on the P81 filter paper binding hot-spot technique (Nat Biotechnol. 2011, 29:1039). A brief description is as follows:
# (§3) The assay buffer system contained 20 mM Hepes (pH 7.5), 10 mM MgCl2, 1 mM EGTA, 0.01% Brij35 (L23 polyoxyethylene lauryl ether), 0.02 mg/mL BSA (bovine serum albumin), 0.1 mM Na3VO4, 2 mM DTT, and 1% DMSO.
# (§4) • 1. A 20 µM substrate solution was prepared with freshly prepared test buffer and CHKtide peptide fragments (Sanchez Y. Science. 1997, 277: 1497-1501) were used as a substrate. • 2. Kinases were added and mixed gently (a final concentration of NUAK1 was 10 nM; and a final concentration of NUAK2 was 50 nM). • 3. Test compounds dissolved in 100% DMSO were each added to the above kinase reaction mixture solution via Acoustic Droplet Ejection (Echo550; nanoliter) and the mixture was incubated for 5 minutes at room temperature. • 4. ^33P-labeled ATP (a ratio of unlabeled ATP to labeled ATP was 25:1 or 2.5:1) was added. • 5. The mixture was incubated for 2 hours at room temperature. • 6. Kinase activity was tested using the P81 filter paper combined with hotspot technology.
# (§5) The IC50 values of the test compounds against NUAK1/NUAK2 were calculated according to the above test. For specific results, see Table 1.
# (§6) The IC50 values were calculated by using a formula derived from sigmoidal dose-response curve (variable slope): Y = Bottom + (Top−Bottom)/(1+10^(∧)((LogEC50−X)*Slope, [formula] where X is the logarithm of compound concentration, Y is the response (inhibition rate of kinase activity), and Y rises from bottom to top along the sigmoidal curve as the concentration increases. Table 1: IC50 (nM) of Test Compounds of the Present Application against NUAK1/NUAK2
# NUAK2 = biological target: T2, NUAK2 (Homo sapiens, UniProt Q9H093); test: as above; format: biochemical; conditions: final concentration of NUAK2 50 nM; 20 µM CHKtide peptide substrate; 33P-labeled ATP; 2 hours at room temperature; read-out: IC50 (nM) of Test Compounds against NUAK2
# T2 sequence (Q9H093 1-628): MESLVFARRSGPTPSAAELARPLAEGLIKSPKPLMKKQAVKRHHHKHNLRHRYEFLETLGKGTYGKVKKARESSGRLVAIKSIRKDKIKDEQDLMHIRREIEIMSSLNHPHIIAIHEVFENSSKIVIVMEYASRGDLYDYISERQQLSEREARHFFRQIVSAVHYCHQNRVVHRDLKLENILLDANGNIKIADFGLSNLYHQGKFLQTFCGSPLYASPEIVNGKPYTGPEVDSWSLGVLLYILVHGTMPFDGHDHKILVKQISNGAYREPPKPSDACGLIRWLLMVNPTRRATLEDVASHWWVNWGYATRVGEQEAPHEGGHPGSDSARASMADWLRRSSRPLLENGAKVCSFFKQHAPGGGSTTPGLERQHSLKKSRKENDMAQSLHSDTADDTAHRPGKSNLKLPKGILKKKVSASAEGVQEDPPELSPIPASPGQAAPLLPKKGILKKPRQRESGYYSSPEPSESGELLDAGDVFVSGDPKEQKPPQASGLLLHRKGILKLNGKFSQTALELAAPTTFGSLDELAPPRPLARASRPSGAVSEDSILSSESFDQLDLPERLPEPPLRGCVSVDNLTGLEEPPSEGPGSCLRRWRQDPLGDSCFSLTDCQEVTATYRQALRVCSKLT
# Procedure: as §1, §2, §3, §4, §5, §6
SMILES,IC50 (NUAK1),IC50 (NUAK2)
"CN1CCN(c2ccc(Nc3nccc(N4CCC(C)(NC(=O)[C@@H]5CC5(F)F)CC4)n3)cc2)CC1 [TDM-181164, (S)-2,2-Difluoro-N-(4-methyl-1-(2-((4-(4-methylpiperazin-1-yl)phenyl)amino)pyrimidin-4-yl)piperidin-4-yl)cyclopropane-1-carboxamide]",6 nM,15 nM
"CN1CCN(c2ccc(Nc3ncc(Cl)c(N4CCC(C)(NC(=O)[C@@H]5CC5(F)F)CC4)n3)cc2)CC1 [TDM-181174, (S)-N-(1-(5-chloro-2-((4-(4-methylpiperazin-1-yl)phenyl)amino)pyrimidin-4-yl)-4-methylpiperidin-4-yl)-2,2-difluorocyclopropanecarboxamide]",0.46 nM,1.44 nM
"CN1CCN(c2ccc(Nc3ncc(Cl)c(CN4CCC(C)(NS(=O)(=O)C5CC5)CC4)n3)cc2)CC1 [TDM-181183, N-(1-((5-chloro-2-((4-(4-methylpiperazin-1-yl)phenyl)amino)pyrimidin-4-yl)methyl)-4-methylpiperidin-4-yl)cyclopropanesulfonamide]",69 nM,–
"CN1CCN(c2ccc(Nc3ncc(Cl)c(N4CCC(C)(NS(=O)(=O)C5CC5)CC4)n3)cc2)CC1 [TDM-181173, N-(1-(5-chloro-2-((4-(4-methylpiperazin-1-yl)phenyl)amino)pyrimidin-4-yl)-4-methylpiperidin-4-yl)cyclopropanesulfonamide]",1 nM,3 nM
"CN1CCN(c2ccc(Nc3ncc(Cl)c(CN4CCC(C)(NC(=O)[C@@H]5CC5(F)F)CC4)n3)cc2)CC1 [TDM-181182, (S)-N-(1-((5-chloro-2-((4-(4-methylpiperazin-1-yl)phenyl)amino)pyrimidin-4-yl)methyl)-4-methylpiperidin-4-yl)-2,2-difluorocyclopropane-1-carboxamide]",679 nM,–
CC1(NC(=O)[C@@H]2CC2(F)F)CCN(c2ccnc(Nc3cnn(C4CCNCC4)c3)n2)CC1 [TDM-181163],30 nM,15 nM

# Further lines, results first:
IC50 (NUAK1),IC50 (NUAK2),SMILES
71 nM,29 nM,CC1(NS(=O)(=O)C2CC2)CCN(c2ccnc(Nc3cnn(C4CCNCC4)c3)n2)CC1 [TDM-181137]
1.24 nM,2.76 nM,CC1(NC(=O)[C@@H]2CC2(F)F)CCN(c2nc(Nc3cnn(C4CCNCC4)c3)ncc2Cl)CC1
39 nM,72 nM,"CN1CCN(c2ccc(Nc3nccc(N4CCC(C)(NS(=O)(=O)C5CC5)CC4)n3)cc2)CC1 [TDM-181165, N-(4-methyl-1-(2-((4-(4-methylpiperazin-1-yl)phenyl)amino)pyrimidin-4-yl)piperidin-4-yl)cyclopropanesulfonamide]"
20 nM,13 nM,"COc1cc(N2CCN(C)CC2)ccc1Nc1ncc(Cl)c(N2CCC(C)(NS(=O)(=O)C3CC3)CC2)n1 [TDM-181175, N-(1-(5-chloro-2-((2-methoxy-4-(4-methylpiperazin-1-yl)phenyl)amino)pyrimidin-4-yl)4-methylpiperidin-4-yl)cyclopropanesulfonamide]"
959 nM,–,"CC1(NC(=O)[C@@H]2CC2(F)F)CCN(Cc2nc(Nc3cnn(C4CCNCC4)c3)ncc2Cl)CC1 [TDM-181186, (S)-N-(1-((5-chloro-2-((1-(piperidin-4-yl)-1H-pyrazol-4-yl)amino)pyrimidin-4-yl)methyl)-4-methylpiperidin-4-yl)-2,2-difluorocyclopropane-1-carboxamide]"
